IC50 data for 42 compounds are collected here from patent publication US20240247024A1, “INHIBITORS OF NICOTINAMIDE N-METHYL TRANSFERASE (NNMT)” (UNIVERSITEIT LEIDEN, priority 2021, published 2024).

Structures are written as SMILES. Where “and” joins values, the source holds several entries; their conditions need not be identical. Equal entries are not always repeated. Where two headings read alike, the source gives them in different places. A value given as a limit tells only on which side of the number the result lay.

The target in this assay is T1, NNMT (Homo sapiens, UniProt P40261).
T1 sequence (P40261 1-264): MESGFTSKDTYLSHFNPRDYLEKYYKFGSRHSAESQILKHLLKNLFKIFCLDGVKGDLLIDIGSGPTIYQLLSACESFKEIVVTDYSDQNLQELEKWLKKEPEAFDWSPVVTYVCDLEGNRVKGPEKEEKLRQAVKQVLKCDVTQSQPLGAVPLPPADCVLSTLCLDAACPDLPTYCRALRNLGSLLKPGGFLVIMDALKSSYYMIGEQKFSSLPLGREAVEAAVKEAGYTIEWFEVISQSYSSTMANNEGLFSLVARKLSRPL
Put plainly: NNMT assay (HILIC-MS/MS, formation of MNA). The note with it: NA 200 μM, SAM 8.5 μM.

Setting [1] is: read-out: IC50 values, Table 1, alkene linked aromatics, maximum concentration tested 25 μM.
Setting [2] is: IC50 values (nM), Table 1, alkene linked aromatics, maximum concentration tested 25 μM.
The mark [3] stands for this setting: IC50 values (μM), Table 1, alkene linked aromatics, maximum concentration tested 25 μM.
Where [4] appears, read: IC50 values (nM), Table 3, 1-carbon alkyl linkers, maximum concentration tested 25 μM.
Setting [5] is: IC50 values (μM), Table 3, 1-carbon alkyl linkers, maximum concentration tested 25 μM.
Where [6] appears, read: IC50 values (nM), Table 6, amino acid replacement, maximum concentration tested 25 μM.
Where [7] appears, read: IC50 values (μM), Table 6, amino acid replacement, maximum concentration tested 25 μM.
The mark [8] stands for this setting: IC50 values (nM), Table 9, compounds CM035 and CM037.
The mark [9] stands for this setting: IC50 values (μM), Table 9, compounds CM035 and CM037.

As a reminder, the IC50 is the concentration at which inhibition is half-maximal. Take `Nc1ncnc2c1ncn2[C@@H]1O[C@H](CN(CCCc2ccc([N+](=O)[O-])cc2)CC[C@H](N)C(=O)O)[C@@H](O)[C@H]1O` [GYZ-447]: half-maximal inhibition (IC50 values (nM), Table 5, 3-carbon alkyl linkers) (IC50) required 294 nM and it took 290 nM to reach half-maximal inhibition (IC50 values (μM), Table 5, 3-carbon alkyl linkers) (IC50).

On to `N#Cc1ccc(/C=C/CN(CC[C@H](N)C(=O)O)C[C@H]2O[C@@H](n3cnc4c(N)ncnc43)[C@H](O)[C@@H]2O)cc1F` [GYZ-658], for which the 50% inhibitory concentration (IC50) under setting [1] is below 5 nM.

With `C=CC(=O)CCCN(C/C=C/c1ccc(C#N)cc1)C[C@H]1O[C@@H](n2cnc3c(N)ncnc32)[C@H](O)[C@@H]1O` [GYZ-704], the IC50 (read-out: IC50 values, Table 6, amino acid replacement, maximum concentration tested 25 μM) was 538 nM.

Regarding `N#Cc1c(F)cc(/C=C/CN(CC[C@H](N)C(=O)O)C[C@H]2O[C@@H](n3cnc4c(N)ncnc43)[C@H](O)[C@@H]2O)cc1F` [GYZ-670], under setting [1], the IC50 is 2 nM and 1.99 nM.

In the case of `Nc1ncnc2c1ncn2[C@@H]1O[C@H](CN(CC[C@H](N)C(=O)O)Cc2ccc(F)c([N+](=O)[O-])c2)[C@@H](O)[C@H]1O` [GYZ-417], under “read-out: IC50 values, Table 3, 1-carbon alkyl linkers, maximum concentration tested 25 μM”, the IC50 is 410 nM and 407 nM.

As to `Nc1ncnc2c1ncn2[C@@H]1O[C@H](CN(C/C=C/c2cc(F)c(F)c(F)c2)CC[C@H](N)C(=O)O)[C@@H](O)[C@H]1O` [MH611], the IC50 runs as follows: under setting [2], 363 nM; under setting [3], 363 nM.

Turning to `Nc1ncnc2c1ncn2[C@@H]1O[C@H](CN(C/C=C/c2cccc(C(F)(F)F)c2)CC[C@H](N)C(=O)O)[C@@H](O)[C@H]1O` [GYZ-349], under setting [1], the IC50 stood at 164 nM.

Turning to `Nc1ncnc2c1ncn2[C@@H]1O[C@H](CN(C/C=C/c2ccc(C(=O)O)cc2)CC[C@H](N)C(=O)O)[C@@H](O)[C@H]1O` [GYZ-564], under setting [1], the half-maximal inhibitory concentration (IC50) was above 25000 nM.

The compound `Nc1ncnc2c1ncn2[C@@H]1O[C@H](CN(CC[C@H](N)C(=O)O)Cc2ccccc2C(F)(F)F)[C@@H](O)[C@H]1O` [GYZ-415] registered an IC50 under setting [4] of 9700 nM and an IC50 under setting [5] of 9700 nM.

In the case of `N#Cc1ccc(/C=C/CN(C/C=C/c2ccc(C#N)cc2)C[C@H]2O[C@@H](n3cnc4c(N)ncnc43)[C@H](O)[C@@H]2O)cc1` [GYZ-466], the IC50 was above 25000 nM under setting [6] and above 25000 nM under setting [7].

On to `Nc1ncnc2c1ncn2[C@@H]1O[C@H](CN(C/C=C/c2ccccc2C(F)(F)F)CC[C@H](N)C(=O)O)[C@@H](O)[C@H]1O` [GYZ-326], for which, under setting [1], the half-maximal inhibitory concentration (IC50) amounted to 2850 nM.

For the compound `N#Cc1ccc(/C=C/CN(CCS(=O)(=O)F)C[C@H]2O[C@@H](n3cnc4c(N)ncnc43)[C@H](O)[C@@H]2O)cc1` [GYZ-748], the concentration for half-maximal inhibition (IC50) by setting is: under setting [6], above 25000 nM; under setting [7], above 25000 nM.

For `Nc1ncnc2c1ncn2[C@@H]1O[C@H](CN(CC[C@H](N)C(=O)O)Cc2ccc([N+](=O)[O-])cc2)[C@@H](O)[C@H]1O` [GYZ-420], the IC50 amounted to 6610 nM under setting [4] and 6610 nM under setting [5].

`N#Cc1ccc(/C=C/CN(CCNC(=O)C(F)(F)Cl)C[C@H]2O[C@@H](n3cnc4c(N)ncnc43)[C@H](O)[C@@H]2O)cc1` [GYZ-701]: the IC50 runs as follows: under setting [6], above 25000 nM; under setting [7], above 25000 nM.

Take `COC(=O)/C=C/C(=O)NCCN(C/C=C/c1ccc(C#N)cc1)C[C@H]1O[C@@H](n2cnc3c(N)ncnc32)[C@H](O)[C@@H]1O` [GYZ-694]: the IC50 by setting is: under setting [6], above 25000 nM; under setting [7], above 25000 nM.

For `Nc1ncnc2c1ncn2[C@@H]1O[C@H](CN(C/C=C/c2c(F)c(F)cc(F)c2F)CC[C@H](N)C(=O)O)[C@@H](O)[C@H]1O` [MH612], the IC50 worked out at 1810 nM under setting [2] and 1810 nM under setting [3].

With `N#Cc1ccc(/C=C/CN(CC[C@H](N)C(=O)O)C[C@H]2O[C@@H](n3cnc4c(N)ncnc43)[C@H](O)[C@@H]2O)c(F)c1` [GYZ-674], the IC50 under setting [1] is 5 nM and 5.33 nM.

As to `Nc1ncnc2c1ncn2[C@@H]1O[C@H](CN(C/C=C/c2c(F)c(F)c(F)c(F)c2F)CC[C@H](N)C(=O)O)[C@@H](O)[C@H]1O` [MH609], the half-maximal inhibitory concentration (IC50) by setting is: under setting [2], 400 nM; under setting [3], 400 nM.

Take `Nc1ncnc2c1ncn2[C@@H]1O[C@H](CN(CC[C@H](N)C(=O)O)Cc2ccccc2F)[C@@H](O)[C@H]1O` [GYZ-421]: the IC50 reads like this: under setting [4], above 25000 nM; under setting [5], above 25000 nM.

For `Nc1ncnc2c1ncn2[C@@H]1O[C@H](CN(C/C=C/c2cccc(S(=O)(=O)F)c2)CC[C@H](N)C(=O)O)[C@@H](O)[C@H]1O` [GYZ-764], under setting [1], the IC50 was 89 nM and 88.6 nM.

On to `N#Cc1ccc(/C=C/CN(C/C=C/c2ccc(S(=O)(=O)F)cc2)C[C@H]2O[C@@H](n3cnc4c(N)ncnc43)[C@H](O)[C@@H]2O)cc1` [GYZ-743], for which the IC50 stood at 7780 nM under setting [6] and 7780 nM under setting [7].

Turning to `N#Cc1ccc(/C=C/CN(CC(=O)CCl)C[C@H]2O[C@@H](n3cnc4c(N)ncnc43)[C@H](O)[C@@H]2O)cc1` [GYZ-702], the IC50 reads like this: under setting [6], 980 nM; under setting [7], 980 nM.

Consider `Nc1ncnc2c1ncn2[C@@H]1O[C@H](CN(CC[C@H](N)C(=O)O)Cc2cccc([N+](=O)[O-])c2)[C@@H](O)[C@H]1O` [GYZ-419], for which the IC50 was determined as 320 nM under setting [4] and 320 nM under setting [5].

With `N#CCC(=O)NCCN(C/C=C/c1ccc(C#N)cc1)C[C@H]1O[C@@H](n2cnc3c(N)ncnc32)[C@H](O)[C@@H]1O` [GYZ-695], the IC50 by setting is: under setting [6], 931 nM; under setting [7], 931 nM.

Turning to `N#Cc1ccc(/C=C/CN(CCNC(=O)C(F)(F)F)C[C@H]2O[C@@H](n3cnc4c(N)ncnc43)[C@H](O)[C@@H]2O)cc1` [GYZ-693], the IC50 came out at 7770 nM under setting [6] and 7770 nM under setting [7].

In the case of `C=CC(=O)NCCN(C/C=C/c1ccc(C#N)cc1)C[C@H]1O[C@@H](n2cnc3c(N)ncnc32)[C@H](O)[C@@H]1O` [GYZ-604], it took 21000 nM to reach half-maximal inhibition under setting [6] (IC50) and the IC50 under setting [7] stood at 21000 nM.

On to `Nc1ncnc2c1ncn2[C@@H]1O[C@H](CN(C/C=C/c2ccc(B(O)O)cc2)CC[C@H](N)C(=O)O)[C@@H](O)[C@H]1O` [GYZ-732], for which the IC50 under setting [1] was above 25000 nM.

Take `Nc1ncnc2c1ncn2[C@@H]1O[C@H](CN(C/C=C/c2ccc(C(F)(F)F)cc2)CC[C@H](N)C(=O)O)[C@@H](O)[C@H]1O` [GYZ-350]: the IC50 under setting [1] is 1390 nM.

With `Nc1ncnc2c1ncn2[C@@H]1O[C@H](CN(CC[C@H](N)C(=O)O)Cc2ccc(F)cc2)[C@@H](O)[C@H]1O` [GYZ-423], the IC50 is above 25000 nM under setting [4] and above 25000 nM under setting [5].

`N#Cc1ccc(/C=C/CN(CC[C@H](N)C(=O)O)C[C@H]2O[C@@H](n3cnc4c(N)ncnc43)[C@H](O)[C@@H]2O)cc1C(N)=O` [GYZ-755]: the IC50 under setting [1] is 29 nM and 28.7 nM.

Regarding `N#Cc1ccc(/C=C/CN(CCCNC(=O)CCl)C[C@H]2O[C@@H](n3cnc4c(N)ncnc43)[C@H](O)[C@@H]2O)cc1` [GYZ-608], the IC50 reads like this: under setting [6], 11900 nM; under setting [7], 11900 nM.

With `Nc1ncnc2c1ncn2[C@@H]1O[C@H](CN(C/C=C/c2cccc(B(O)O)c2)CC[C@H](N)C(=O)O)[C@@H](O)[C@H]1O` [GYZ-746], under setting [1], the IC50 stood at 1660 nM.

On to `Nc1ncnc2c1ncn2[C@@H]1O[C@H](CN(CC[C@H](N)C(=O)O)Cc2ccc(S(=O)(=O)F)cc2)[C@@H](O)[C@H]1O` [GYZ-760], for which the IC50 by setting is: under setting [4], 5620 nM; under setting [5], 5620 nM.

Consider `Nc1ncnc2c1ncn2[C@@H]1O[C@H](CN(CC[C@H](N)C(=O)O)Cc2cccc(F)c2)[C@@H](O)[C@H]1O` [GYZ-422], for which the IC50 came out at 1240 nM under setting [4] and 1240 nM under setting [5].

`Nc1ncnc2c1ncn2[C@@H]1O[C@H](CN(CC[C@H](N)C(=O)O)Cc2ccc(C(F)(F)F)cc2)[C@@H](O)[C@H]1O` [GYZ-414]: the IC50 by setting is: under setting [4], 6790 nM; under setting [5], 6790 nM.

As for `NC(=O)c1cc(/C=C/CN(CC[C@H](N)C(=O)O)C[C@H]2O[C@@H](n3cnc4c(N)ncnc43)[C@H](O)[C@@H]2O)ccc1Br` [GYZ-739], the IC50 under setting [1] was 7 nM and 6.8 nM.

In the case of `CC(=O)N(C/C=C/c1ccc(C#N)cc1)C[C@H]1C[C@@H](n2ccc3c(N)ncnc32)[C@H](O)[C@@H]1O` [CM037], the IC50 was 264 nM under setting [8] and 260 nM under setting [9].

`N#Cc1c(F)c(F)c(/C=C/CN(CC[C@H](N)C(=O)O)C[C@H]2O[C@@H](n3cnc4c(N)ncnc43)[C@H](O)[C@@H]2O)c(F)c1F` [MH610]: the IC50 is 7.14 nM under setting [2] and 7 nM under setting [3].

On to `CC(=O)N(C/C=C/c1ccc(C#N)cc1)C[C@H]1C[C@@H](n2ccc3c(Cl)ncnc32)[C@H](O)[C@@H]1O` [CM035], for which the IC50 reads like this: under setting [8], 3580 nM; under setting [9], 3580 nM.

Take `Nc1ncnc2c1ncn2[C@@H]1O[C@H](CN(CC[C@H](N)C(=O)O)Cc2ccccc2[N+](=O)[O-])[C@@H](O)[C@H]1O` [GYZ-425]: the concentration for half-maximal inhibition (IC50) reads like this: under setting [4], above 25000 nM; under setting [5], above 25000 nM.

Consider `N#Cc1ccc(/C=C/CN(CCC[C@H](N)C(=O)O)C[C@H]2O[C@@H](n3cnc4c(N)ncnc43)[C@H](O)[C@@H]2O)cc1` [GYZ-485], for which it took 356 nM to reach half-maximal inhibition under setting [6] (IC50).

Regarding `Nc1ncnc2c1ncn2[C@@H]1O[C@H](CN(C/C=C/c2ccc(S(=O)(=O)F)cc2)CC[C@H](N)C(=O)O)[C@@H](O)[C@H]1O` [GYZ-736], under setting [1], the 50% inhibitory concentration (IC50) was 68 nM and 67.9 nM.
